Data: article PMC6332318, “Synthetic Development of New 3-(4-Arylmethylamino)butyl-5-arylidene-rhodanines under Microwave Irradiation and Their Effects on Tumor Cell Lines and against Protein Kinases” (Molecules, 2015)

Columns and labels:
[1] = test system: panel of seven representative tumoral cell lines; test: in vitro inhibition of cell proliferation, whole panel; type: cell-based; details: all cell lines of the panel, without selectivity; read-out: IC50, moderate antitumor activities in all cell lines of the panel
Method: (§1) As an initial effort to investigate their in vitro bioactivity, the new synthesized 3-(4-arylmethylamino)butyl-2-thioxo-1,3-thiazolidine-4-one 9a–n and also their precursors 6a–f were evaluated for their in vitro inhibition of cell proliferation. For this study, we used a panel of seven representative tumoral cell lines, namely HuH7 D12 (differential hepato cellular carcinoma), Caco 2 (differentiating colorectal adenocarcinoma), MDA-MBD231 ([…]), HCT 116 (actively proliferating colorectal adenocarcinoma), PC3 (prostate carcinoma), NCI-H727 (lung carcinoma), HaCat keratinocyte and, diploid skin fibroblasts as normal cell lines for control.
Skin diploid fibroblastic cells were provided by BIOPREDIC International Company (Rennes, France). Caco2 (Ref ECACC: 86010202), Huh-7D12 (Ref ECACC: 01042712), MDA-MB-231 (Ref ECACC: 92020424), HCT-116 (Ref ECACC: 91091005), PC3 (Ref ECACC: 90112714), NCI-H727 (Ref ECACC: 94060303) cell lines were obtained from the ECACC collection and HaCaT (from Cell Lines Service, Eppelheim, Germany). Cells were grown according to ECACC recommendations. […] Cells were fixed in cooled solution of 90% ethanol/5% acetic acid, nuclei were stained with Hoechst 3342 (Sigma) and counted using automated imaging analysis (Cellomics Arrayscan VTI/HCS Reader, Thermo/Scientific, Waltham, MA, USA). The IC50 were graphically determined.

[2] = test system: Caco 2 cells (differentiating colorectal adenocarcinoma); test: in vitro inhibition of cell proliferation / survival assay; type: cell-based; details: Homo sapiens; for viability at 25 µM: measured at 25 μM after 48 h, single dose, triplicate
Method: as §1
(§2) Skin diploid fibroblastic cells were provided by BIOPREDIC International Company (Rennes, France). Caco2 (Ref ECACC: 86010202), Huh-7D12 (Ref ECACC: 01042712), MDA-MB-231 (Ref ECACC: 92020424), HCT-116 (Ref ECACC: 91091005), PC3 (Ref ECACC: 90112714), NCI-H727 (Ref ECACC: 94060303) cell lines were obtained from the ECACC collection and HaCaT (from Cell Lines Service, Eppelheim, Germany). Cells were grown according to ECACC recommendations. The toxicity test of the compounds on these cells was as follows: 2 × 10^3 cells for HCT-116 cells or 4 × 10^3 for the other cells were seeded in 96 multiwell plates in triplicate and left for 24 h for attachment, spreading and growing. Then, cells were exposed for 48 h to increasing concentrations of the compounds, ranging from 0.1 to 25 μM in a final volume of 120 μL of culture medium. Cells were fixed in cooled solution of 90% ethanol/5% acetic acid, nuclei were stained with Hoechst 3342 (Sigma) and counted using automated imaging analysis (Cellomics Arrayscan VTI/HCS Reader, Thermo/Scientific, Waltham, MA, USA). The IC50 were graphically determined.

[3] = test system: Huh7 D12 cells (differential hepato cellular carcinoma); test: as above; type: cell-based; details: for viability at 25 µM: Huh-7D12, measured at 25 μM after 48 h, single dose, triplicate
Method: as §1, §2

[4] = test system: PC3 cells (prostate carcinoma); test: as above; type: cell-based; details: Homo sapiens; for viability at 25 µM: PC-3, measured at 25 μM after 48 h, single dose, triplicate
Method: as §1, §2

HaCat keratinocyte = test: as above; type: cell-based; details: Homo sapiens; for viability at 25 µM: measured at 25 μM after 48 h, single dose, triplicate
Method: as §1, §2

MDA-MB231 cells = test: as above; type: cell-based; details: Homo sapiens; for viability at 25 µM: MDA-MB-231, measured at 25 μM after 48 h, single dose, triplicate
Method: as §1, §2

[5] = test system: HCT 116 cells (actively proliferating colorectal adenocarcinoma); test: as above; type: cell-based; details: Homo sapiens; for viability at 25 µM: measured at 25 μM after 48 h, single dose, triplicate
Method: as §1, §2

[6] = test system: NCI-H727 cells (lung carcinoma); test: as above; type: cell-based; details: Homo sapiens, NCI-H727; for viability at 25 µM: measured at 25 μM after 48 h, single dose, triplicate, read-out: % of Survival
Method: as §1, §2

diploid skin fibroblasts = test: in vitro inhibition of cell proliferation / survival assay, normal cells control; type: cell-based; details: Skin fibroblast, Fibroblasts; for viability at 25 µM: measured at 25 μM after 48 h, single dose, triplicate, read-out: % of Survival
Method: as §1, §2

[7] = 48 h, average of three assays, standard error ± 0.5 μM

Compound	melting point [°C]	IC50 [1] [µM]	IC50 [2, 7] [µM]	viability at 25 µM [2] [%]	IC50 ([3]; Huh-7D12, 48 h, average of three assays, standard error ± 0.5 μM) [µM]	viability at 25 µM [3] [%]	IC50 ([4]; PC-3, 48 h, average of three assays, standard error ± 0.5 μM) [µM]	viability at 25 µM [4] [%]	IC50 (HaCat keratinocyte; HaCaT, 48 h, average of three assays, standard error ± 0.5 μM) [µM]	viability at 25 µM (HaCat keratinocyte) [%]	IC50 (MDA-MB231 cells; MDA-MB-231, 48 h, average of three assays, standard error ± 0.5 μM) [µM]	viability at 25 µM (MDA-MB231 cells) [%]	IC50 [5, 7] [µM]	viability at 25 µM [5] [%]	IC50 [6, 7] [µM]	viability at 25 µM [6] [%]	IC50 (diploid skin fibroblasts; [7]) [µM]	viability at 25 µM (diploid skin fibroblasts) [%]
COc1ccc(CNCCCCN2C(=O)/C(=C/c3ccc(O)c(OC)c3)SC2=S)cc1 [Compound 9d, (5Z)3-[4-(4-Methoxyphenylmethylamino)butyl]-5-(4-hydroxy-3-methoxybenzylidene)-2-thioxo-1,3-thiazolidin-4-one]	191 to 193	10 to 17	15	23	10	7	17	41	10	2	11	15	10	1	10	11	> 25	29
Cl.NCCCCNCc1ccc2c(c1)OCO2 [Compound 6e, N-1-Benzo[1,3]dioxol-5-ylmethyl-butane-1,4-diamine hydrochloride]	> 260			106		91		96		96		102		102		98		93
COc1ccc(CNCCCCN2C(=O)/C(=C/c3ccc4c(c3)OCCO4)SC2=S)cc1 [Compound 9c, (5Z)3-[4-(4-Methoxyphenylmethylamino)butyl]-5-(2,3-dihydro-1,4-benzodioxin-6-ylmethylene)-2-thioxo-1,3-thiazolidin-4-one]	255 to 261			93		88		97		101		92		97		95		102
COc1cc(/C=C2\SC(=S)N(CCCCNCc3ccc4c(c3)OCO4)C2=O)ccc1O [Compound 9k, (5Z)3-[4-(1,3-Benzodioxol-5-ylmethylamino)butyl]-5-(4-hydroxy-3-methoxybenzylidene)-2-thioxo-1,3-thiazolidin-4-one]	200 to 203			98		72		83		80		92		98		96		84
